Assay results published in patent US20220132846A1, “1-PYRIDYL-PYRAZOLYL AMIDE COMPOUNDS AND PREPARATION AND USES THEREOF” (HUNAN RESEARCH INSTITUTE OF CHEMICAL INDUSTRY CO., LTD., priority 2019, published 2022).
Read-outs that look alike come from different tables or passages of the source.

Assays:
Type in all cases: in vivo
[1] = tested on: Spodoptera litura (Fabricius); assay: Test against Spodoptera litura, leaf disc dip; conditions: after 72 hours; for Median lethal concentration LC50 against Spodoptera litura, compared with D1: same conditions; for Activity against Spodoptera litura (in words): second-instar larvae
Procedure: (§1) The test compound was dissolved in an appropriate solvent such as N,N-dimethylformamide, and then diluted with 0.2% aqueous solution of Tween 80 to the desired concentration, Those without the test compounds were set as blank controls, the treatments were replicated 3 times. The cabbage leaves were perforated to get 18 mm diameter leaf discs by a hole puncher, 5 leaf discs were dipped in the test solution for 10 seconds and then put into a Petri dish (diameter 90 mm) padded with moisturizing filter paper, after air-drying, the leaf discs were infested with no less than ten second-instar larvae of test insects which were starved for 4 hours, and then the dish was covered and placed in a chamber for culture. After 72 hours, the number of dead insects was investigated, the mortality was calculated, and the regression equation, correlation coefficient (r) and the median lethal concentration (LC50) were obtained using Probit analysis method.

[2] = tested on: Armyworm (Mythimna separata (Walker)); assay: Test against armyworm, Potter tower method; conditions: for mortality at 12.5 µg/mL / mortality at 50 µg/mL / mortality at 500 µg/mL: Mythimna separata, read-out: Activity (mortality) level against armyworm; for Activity against armyworm, further screening (in words): compared with chlorantraniliprole (D1)
Procedure: Potter tower method: the test compound was dissolved in an appropriate solvent such as N,N-dimethylformamide, and then diluted with 0.2% aqueous solution of Tween 80 to the desired concentration, Those without the test compounds were set as blank controls. The fresh and tender corn leaves were taken and cut into fragments of basically the same size, then put into a Petri dish (diameter 90 mm) padded with filter paper in advance. Ten third-instar larvae of test insects were transferred into the dish and then placed under the Potter spray tower for being sprayed, each concentration treatment was sprayed at the amount of 1 mL and replicated 3 times. The dish was covered and then placed in a chamber for culture and observed regularly, after 72 hours, the dead insects was investigated and recorded and the mean mortality was calculated. […]

[3] = tested on: Diamondback moth (Plutella xylostella (Linnaeus)); assay: Test against diamondback moth, leaf disc dip; conditions: after 72 hours; for LC50: Plutella xylostella, foliar, read-out: Lethal medium concentration LC50 against diamondback moth; for Activity against diamondback moth (in words): second-instar larvae
Procedure: as §1

[4] = tested on: Aphis fabae; assay: Test against aphid, leaf dip method (Aphis fabae); conditions: foliar; for mortality at 12.5 µg/mL / mortality at 50 µg/mL / mortality at 200 µg/mL / mortality at 500 µg/mL: read-out: Activity (mortality) level against Aphis fabae; for LC50: read-out: LC50 against Aphis fabae
Procedure: For evaluating the activity of the compounds of this invention against Homoptera pests, Aphis fabae, wheat aphids, etc. were selected as the test insects, and the activity of the compounds of this invention against aphids was measured by leaf dip method indoors.
Leaf dip method (Aphis fabae): the test compound was dissolved in an appropriate solvent such as N,N-dimethylformamide, and then diluted with 0.2% aqueous solution of Tween 80 to the desired concentration, Those without the test compounds were set as blank controls, the treatments were replicated 3 times. Horsebean seedlings with no less than twenty 3-day-old Aphis fabae per plant was cut from the stem, 5 horsebean seedlings with the insects were dipped in the test solution for 5 seconds, then inserted into a sponge filled with water after sucked dry using filter paper, then covered with a glass tube and placed in a chamber for culture. After 24 hours, the number of living and dead insects were investigated and the results were averaged. […]

[5] = 12.5 mg/L, third-instar larvae, after 72 hours
[6] = 50 mg/L, third-instar larvae, after 72 hours
[7] = 500 mg/L, third-instar larvae, after 72 hours

Row | Structure (SMILES) | Activity against Spodoptera litura (in words) [1] | mortality at 12.5 µg/mL [2, 5] | mortality at 50 µg/mL [2, 6] | mortality at 500 µg/mL [2, 7] | Activity against armyworm, further screening (in words) [2] | Activity against diamondback moth (in words) [3] | mortality at 12.5 µg/mL ([4]; 12.5 mg/L, after 24 hours) | mortality at 50 µg/mL ([4]; 50 mg/L, after 24 hours) | mortality at 200 µg/mL ([4]; 200 mg/L, after 24 hours) | mortality at 500 µg/mL ([4]; 500 mg/L, after 24 hours) | LC50 ([4]; further test) | also measured
1 | CNC(=O)c1cc(Cl)cc(Cl)c1N(C)C(=O)c1cc(Br)nn1-c1ncccc1Cl [Compound 1, N-[2,4-dichloro-6-[(methylamino)carbonyl]phenyl]-N-methyl-1-(3-chloro-2-pyridinyl)-3-bromo-1H-pyrazole-5-carboxamide] | high activity at very low concentration | 90 to 100% | 90 to 100% | 90 to 100% | excellent activity | high activity at very low concentration | 90 to 100% | 90 to 100% | 90 to 100% | 90 to 100% | < 1 µg/mL | Median lethal concentration LC50 against Spodoptera litura, compared with D1 [1]: lower than that of chlorantraniliprole (D1); Activity against armyworm ([2]; 1.25 mg/L): 75%; LC50 [3]: < 1 µg/mL
2 | CCNC(=O)c1cc(Cl)cc(Cl)c1N(C)C(=O)c1cc(Br)nn1-c1ncccc1Cl [Compound 2, N-[2,4-dichloro-6-[(ethylamino)carbonyl]phenyl]-N-methyl-1-(3-chloro-2-pyridinyl)-3-bromo-1H-pyrazole-5-carboxamide] | high activity at very low concentration | 90 to 100% | 90 to 100% | 90 to 100% | excellent activity | high activity at very low concentration | 90 to 100% | 90 to 100% | 90 to 100% | 90 to 100% | < 1 µg/mL | Median lethal concentration LC50 against Spodoptera litura, compared with D1 [1]: lower than that of chlorantraniliprole (D1); LC50 [3]: < 1 µg/mL
3 | CCN(C(=O)c1cc(Br)nn1-c1ncccc1Cl)c1c(Cl)cc(Cl)cc1C(=O)NC [Compound 9, N-[2,4-dichloro-6-[(methylamino)carbonyl]phenyl]-N-ethyl-1-(3-chloro-2-pyridinyl)-3-bromo-1H-pyrazole-5-carboxamide] | high activity at very low concentration |  | 90 to 100% | 90 to 100% | excellent activity | high activity at very low concentration | 90 to 100% | 90 to 100% | 90 to 100% | 90 to 100% |  | 
4 | CCNC(=O)c1cc(Cl)cc(Cl)c1N(CC)C(=O)c1cc(Br)nn1-c1ncccc1Cl [Compound 10, N-[2,4-dichloro-6-[(ethylamino)carbonyl]phenyl]-N-ethyl-1-(3-chloro-2-pyridinyl)-3-bromo-1H-pyrazole-5-carboxamide] | high activity at very low concentration | 90 to 100% | 90 to 100% | 90 to 100% | excellent activity | high activity at very low concentration | 90 to 100% | 90 to 100% | 90 to 100% | 90 to 100% | < 1 µg/mL | Median lethal concentration LC50 against Spodoptera litura, compared with D1 [1]: lower than that of chlorantraniliprole (D1)
5 | CN(C)C(=O)c1cc(Cl)cc(Cl)c1N(C)C(=O)c1cc(Br)nn1-c1ncccc1Cl [Compound 11, N-[2,4-dichloro-6-[(dimethylamino)carbonyl]phenyl]-N-methyl-1-(3-chloro-2-pyridinyl)-3-bromo-1H-pyrazole-5-carboxamide] | high activity at very low concentration | 90 to 100% | 90 to 100% | 90 to 100% | excellent activity | high activity at very low concentration | 90 to 100% | 90 to 100% | 90 to 100% | 90 to 100% | < 1 µg/mL | LC50 [3]: < 1 µg/mL
6 | CCN(C)C(=O)c1cc(Cl)cc(Cl)c1N(C)C(=O)c1cc(Br)nn1-c1ncccc1Cl [Compound 12, N-[2,4-dichloro-6-[(methyl(ethyl)amino)carbonyl]phenyl]-N-methyl-1-(3-chloro-2-pyridinyl)-3-bromo-1H-pyrazole-5-carboxamide] | high activity at very low concentration | 90 to 100% | 90 to 100% | 90 to 100% | excellent activity | high activity at very low concentration | 90 to 100% | 90 to 100% | 90 to 100% | 90 to 100% |  | 
7 | CCCN(C)C(=O)c1cc(Cl)cc(C)c1N(C)C(=O)c1cc(Br)nn1-c1ncccc1Cl [Compound 46, N-[2-methyl-4-chloro-6-[(methyl(propyl)amino)carbonyl]phenyl]-N-methyl-1-(3-chloro-2-pyridinyl)-3-bromo-1H-pyrazole-5-carboxamide] |  |  | 90 to 100% | 90 to 100% |  |  |  |  | 90 to 100% | 90 to 100% |  | 
8 | Cc1cc(Cl)cc(C(=S)N(C)C)c1N(C)C(=O)c1cc(Br)nn1-c1ncccc1Cl [Compound 47, N-[2-methyl-4-chloro-6-[(dimethylamino)thioxomethyl]phenyl]-N-methyl-1-(3-chloro-2-pyridinyl)-3-bromo-1H-pyrazole-5-carboxamide] |  |  | 90 to 100% | 90 to 100% |  |  | 90 to 100% | 90 to 100% | 90 to 100% | 90 to 100% |  | 
9 | CCN(CC)C(=O)c1cc(Br)cc(C)c1N(C)C(=O)c1cc(Br)nn1-c1ncccc1Cl [Compound 48, N-[2-methyl-4-bromo-6-[(diethylamino)carbonyl]phenyl]-N-methyl-1-(3-chloro-2-pyridinyl)-3-bromo-1H-pyrazole-5-carboxamide] |  |  | 90 to 100% | 90 to 100% |  |  |  |  |  | 90 to 100% |  | 
10 | CCN(CC)C(=O)c1cc(Br)cc(C)c1N(CC)C(=O)c1cc(Br)nn1-c1ncccc1Cl [Compound 49, N-[2-methyl-4-bromo-6-[(diethylamino)carbonyl]phenyl]-N-ethyl-1-(3-chloro-2-pyridinyl)-3-bromo-1H-pyrazole-5-carboxamide] |  |  | 90 to 100% | 90 to 100% |  |  |  |  | 90 to 100% | 90 to 100% |  | 
11 | CNC(=O)c1cc(C#N)cc(C)c1NC(=O)c1cc(Br)nn1-c1ncccc1Cl [Compound D2, cyantraniliprole, reference compound] |  |  |  |  |  |  |  |  |  |  |  | mortality at 12.5 µg/mL ([2]; 72 h): 90 to 100%; mortality at 50 µg/mL ([2]; 72 h): 90 to 100%; mortality at 500 µg/mL ([2]; 72 h): 90 to 100%; mortality at 12.5 µg/mL ([4]; 24 h): 90 to 100%; mortality at 50 µg/mL ([4]; 24 h): 90 to 100%; mortality at 200 µg/mL ([4]; 24 h): 90 to 100%; mortality at 500 µg/mL ([4]; 24 h): 90 to 100%; LC50 [4]: > 1 µg/mL
12 | CC(NC(=O)c1cc(Cl)cc(Br)c1NC(=O)c1cc(Br)nn1-c1ncccc1Cl)C1CC1 (stereo not shown) [Compound D3, cyclaniliprole, reference compound] |  |  |  |  |  |  |  |  |  |  |  | mortality at 12.5 µg/mL ([2]; 72 h): 70 to 90%; mortality at 50 µg/mL ([2]; 72 h): 90 to 100%; mortality at 500 µg/mL ([2]; 72 h): 90 to 100%; mortality at 12.5 µg/mL ([4]; 24 h): 90 to 100%; mortality at 50 µg/mL ([4]; 24 h): 90 to 100%; mortality at 200 µg/mL ([4]; 24 h): 90 to 100%; mortality at 500 µg/mL ([4]; 24 h): 90 to 100%; LC50 [4]: > 1 µg/mL
